Results: paper PMC11445708 (Dalton transactions (Cambridge, England : 2003), 2024)

Test system: mouse neuroblastoma N2a cells
Experiment: Rescue of Aβ42-induced neurotoxicity in N2a cells
Format: cell-based
Settings: N2a cells treated with Aβ42 and compound

COc1cc(/C=C/C(=O)CC(=O)/C=C/c2ccc(O)c(OC)c2)ccc1O [curcumin]
effect on Aβ42-induced neurotoxicity: dramatically increased the Aβ-induced cytotoxicity
